Experimental data published in DBAASP.
Values joined by “and” are separate entries in the source; they are usually repeats but may differ in a detail not shown here. Identical values can stand only once.

What was measured:
Assay in all cases: ≥ marks a high value that may be exact or a test limit, other limits are often not marked, values filed in µg/mL are converted to µM
[1] = system: Bacillus thuringiensis ATCC 10792
[2] = system: Escherichia coli ATCC 11775
[3] = system: Salmonella enterica subsp. enterica serovar Choleraesuis ATCC 10708
[4] = system: Staphylococcus aureus ATCC 25923
[5] = system: Salmonella enterica subsp. enterica serovar Typhimurium ATCC 14028
[6] = system: Staphylococcus aureus CCT 6538
[7] = system: Pseudomonas aeruginosa ATCC 13388
[8] = system: Escherichia coli CCT 1457
[9] = system: Escherichia coli ATCC 25922
[10] = system: Staphylococcus aureus CCT 2580
[11] = system: Streptococcus pneumoniae ATCC 11733
[12] = system: Staphylococcus epidermidis ATCC 12228
[13] = system: Streptococcus mutans AU159
[14] = system: Pseudomonas aeruginosa ATCC 15422
[15] = system: Enterococcus hirae ATCC 10541
[16] = system: Micrococcus luteus ATCC 4698
[17] = system: Enterococcus faecium CCT 5079
[18] = system: Candida albicans ATCC 90028
[19] = system: Bacillus cereus ATCC 11778
[20] = system: Legionella pneumophila Lens
[21] = system: Klebsiella pneumoniae ATCC 13883
[22] = system: Enterococcus faecalis ATCC 29212
Bacillus subtilis = system: Bacillus subtilis
[23] = system: Streptococcus pyogenes ATCC 19615
[24] = system: Pseudomonas aeruginosa ATCC 27853
Escherichia coli = system: Escherichia coli
[25] = system: Salmonella enterica subsp. enterica serovar Pullorum C79-13
[26] = system: Lacticaseibacillus rhamnosus 7469
[27] = system: Lactiplantibacillus plantarum 8014
Escherichia coli K88 = system: Escherichia coli K88
[28] = system: Lacticaseibacillus rhamnosus 1.0936
[29] = system: Staphylococcus aureus ATCC 43300
Escherichia coli UB1005 = system: Escherichia coli UB1005
[30] = system: Lacticaseibacillus rhamnosus 1.0385
[31] = system: Lacticaseibacillus rhamnosus 1.0911
Escherichia coli K99 = system: Escherichia coli K99
[32] = system: Salmonella enterica subsp. enterica serovar Typhimurium C77-31

Measured: MIC

CC[C@H](C)[C@H](N)C(=O)N[C@@H](CC(N)=O)C(=O)N[C@@H](Cc1c[nH]c2ccccc12)C(=O)N[C@@H](CCCCN)C(=O)N[C@@H](CCCCN)C(=O)N[C@H](C(=O)N[C@@H](C)C(=O)N[C@@H](CCCCN)C(=O)N[C@@H](CCCCN)C(=O)N[C@H](C(=O)N[C@@H](C)C(=O)NCC(=O)N[C@@H](CCSC)C(=O)N[C@@H](CC(C)C)C(N)=O)C(C)C)[C@@H](C)CC [INWKKIAKKVAGML]
9.76 µM: [18]
10 µM: [7] | [19]
2.5 µM: [2] | [9]
5 µM: [3] | [14] | [15]
0.625 µM: [6] | [8] | [11] | [12] | [16] | [17]
1.25 µM: [4] | [5] | [10] | [13]
19.4 µM: [1]

CC[C@H](C)[C@H](N)C(=O)N[C@@H](CC(N)=O)C(=O)N[C@@H](Cc1c[nH]c2ccccc12)C(=O)N[C@@H](CC(C)C)C(=O)N[C@@H](C)C(=O)N[C@H](C(=O)N[C@@H](C)C(=O)N[C@@H](C)C(=O)N[C@@H](C)C(=O)N[C@H](C(=O)N[C@@H](C)C(=O)NCC(=O)N[C@@H](CCSC)C(=O)N[C@@H](CC(C)C)C(N)=O)C(C)C)[C@@H](C)CC [INWLAIAAAVAGML]
≥ 354 µM: [1] | [2] | [3] | [6] | [7] | [8] | [10] | [11] | [13] | [14] | [15] | [16] | [17] | [19]
> 354 µM: [4] | [5] | [9] | [12]

CC[C@H](C)[C@H](NC(=O)[C@H](Cc1ccccc1)NC(=O)CNC(=O)[C@H](CC(N)=O)NC(=O)[C@@H](N)CCSC)C(=O)N[C@@H](CC(C)C)C(=O)NCC(=O)N[C@@H](CCCCN)C(=O)N[C@@H](Cc1ccccc1)C(=O)N[C@@H](Cc1ccccc1)C(=O)N[C@@H](CC(=O)O)C(=O)N[C@H](C(=O)N[C@@H](C)C(=O)N[C@@H](CCCCN)C(=O)N[C@@H](CCCCN)C(=O)N[C@H](C(=O)N[C@@H](CC(C)C)C(=O)N[C@@H](CC(=O)O)C(=O)N[C@H](C(=O)N[C@H](C(=O)N[C@@H](Cc1ccccc1)C(=O)N[C@@H](CCC(N)=O)C(=O)N[C@@H](CCCCN)C(=O)O)[C@@H](C)CC)[C@@H](C)O)[C@@H](C)CC)C(C)C [MNGFILGKFFDVAKKILDTIFQK]
1.22 µM: [20]

CC[C@H](C)[C@H](NC(=O)[C@H](CC(C)C)NC(=O)[C@H](CC(=O)O)NC(=O)[C@@H](NC(=O)[C@@H](NC(=O)[C@H](Cc1ccccc1)NC(=O)[C@H](CCC(N)=O)NC(=O)[C@@H](N)CCSC)[C@@H](C)CC)[C@@H](C)O)C(=O)N[C@@H](CCCCN)C(=O)N[C@@H](CCCCN)C(=O)N[C@@H](C)C(=O)N[C@H](C(=O)N[C@@H](CC(=O)O)C(=O)N[C@@H](Cc1ccccc1)C(=O)N[C@@H](Cc1ccccc1)C(=O)N[C@@H](CCCCN)C(=O)NCC(=O)N[C@@H](CC(C)C)C(=O)N[C@H](C(=O)NCC(=O)N[C@@H](CC(N)=O)C(=O)N[C@@H](CCCCN)C(=O)O)C(C)C)C(C)C [MQFITDLIKKAVDFFKGLVGNK]
2.08 µM: [20]

CC(C)C[C@H](NC(=O)[C@H](Cc1c[nH]c2ccccc12)NC(=O)[C@H](CCC(N)=O)NC(=O)[C@@H](NC(=O)[C@H](CCC(N)=O)NC(=O)[C@@H]1CCCN1C(=O)[C@H](CCC(=O)O)NC(=O)[C@H](CCCN=C(N)N)NC(=O)[C@@H](N)CCC(N)=O)C(C)C)C(=O)N[C@@H](CCC(=O)O)C(=O)N[C@@H](CCC(N)=O)C(=O)N[C@@H](CCC(N)=O)C(=O)N[C@H](C(=O)N[C@@H](C)C(=O)N[C@@H](CCCCN)C(=O)N[C@@H](CCCN=C(N)N)C(=O)N[C@@H](CCCN=C(N)N)C(=O)N[C@H](C(=O)N[C@@H](CCCCN)C(=O)N[C@@H](CCCN=C(N)N)C(=O)O)[C@@H](C)O)C(C)C [QREPQVQWLEQQVAKRRTKR]
> 100 µM: [22] | [4] | [5] | [24] | Escherichia coli
≥ 100 µM: [21] | Bacillus subtilis | [23]

NC(=O)[C@H](CCCN=C(N)N)NC(=O)[C@H](CCCN=C(N)N)NC(=O)[C@H](Cc1c[nH]c2ccccc12)NC(=O)[C@H](Cc1c[nH]c2ccccc12)NC(=O)[C@H](Cc1c[nH]c2ccccc12)NC(=O)[C@@H](N)CCCN=C(N)N [RWWWRR]
8 µM: [29]
≥ 32 µM: Escherichia coli K88 | Escherichia coli UB1005 | Escherichia coli K99
≥ 64 µM: [25] | [26] | [27] | [28] | [30] | [31] | [32]
> 64 µM: [5] | [24]
23.9 µM and 32 µM: [9]
